In test [1] the test system is High-fat diet fed C57BL6J mice. Description: Acute oral dosing study in high-fat diet fed mice. The format is in vivo.
For test [2], the system named is Diet-induced obese mice. Kind of test: Diet-induced obese mice study, 14 days dosing. It is filed as in vivo. The conditions noted are these: once daily for 14 days; BC1618 8 or 40 mg/kg/d. Here is the method: FIG. 12. Diet-induced obese mice were fed a high-fat diet for 19 weeks and then injected with vehicle or drug once daily for 14 days. Daily body weights (in grams) of the mice are shown.
Diet-induced obese mice arrived from Jackson Labs and recovered two weeks in satellite housing before study. Mice were 25 weeks old and fed a high-fat diet for 19 weeks at the time of study. Body weight, fat and lean mass were measured and mice were grouped in order to match body weights at ˜46.5 g average per group prior to study. Following the acute dosing trial, mice were injected with vehicle or drug 1× daily between noon and 2 pm for 14 days (BC1618-L (low dose)=8 mg/kg/d, BC1618-H (high dose)=40 mg/kg/d). Body weight was recorded daily (FIGS. 12-15). FIG. 12 and FIG. 13 show body weight in grams and FIG. 14 and FIG. 15 show body weight as a percentage of body weight on day 0 (DO).
FIGS. 16-19 show the change (A) in body weight (BW) from day 0 to day 14 expressed as change in grams (FIG. 16 and FIG. 17) or as percent change from day 0 (FIG. 18 and FIG. 19).
Body composition was measured at DO in the body weight matched animals and again at day 14 (D14). Data in FIGS. 20-23 represent the change in fat mass from DO to D14 expressed as grams (FIG. 20 and FIG. 21) or as percent change (FIG. 22 and FIG. 23).
Data in FIGS. 24-27 represent the change in lean mass from DO to D14 expressed as grams (FIG. 24 and FIG. 25) and as percent change (FIG. 26 and FIG. 27). Overall there appears to be a modest effect of vehicle and drug to reduce lean mass over 14 days, but no differences between groups. Changes in BW over 14 days therefore reflect changes in fat mass and not lean mass.

Test [3] has as its system phospho-AMPK. Kind of test: phospho-AMPK / p-ACC immunoblotting in Beas2B cells (in vitro studies). It is filed as cell-based, Human. The protocol:
FIG. 3. (A) Beas2b cells were cultured in DMEM 2% media with glucose for 24 h before switching to glucose-free media. Cells were then exposed to either DMSO or Compound 1 (2 μM) in a time course before being collected for immunoblotting. (B) Beas2B cells were exposed to Compound 1 for 18 h at various doses before being collected for immunoblotting. (C) Beas2b cells were cultured in DMEM 2% media with glucose for 24 h before switching to glucose-free media. Cells were then exposed to AICAR at various doses with or without Compound 1 co-treatment. After 18 h, cells were collected before being assayed by immunoblotting.
FIG. 4. (A) Beas2b cells were cultured in DMEM 2% media with glucose for 24 h before switching to glucose-free media. Cells were then exposed to Compound 12 in a dose dependent manner for 18 h before being collected for immunoblotting. (B) Beas2b cells were cultured in DMEM 2% media with glucose for 24 h before Compound 12 treatment in a dose dependent manner. After 18 h, cells were then collected for immunoblotting. (C) Beas2b cells were cultured in DMEM 2% media with glucose for 24 h before switching to glucose-free media. Cells were then exposed to Compound 12 for 18 h before being collected for mRNA analysis. (D) 50K PBMC cells were cultured in 96 well plates before being exposed to Compound 12 for 4 h. Cells were then treated with LPS (10 ng/ml) for additional 2 h. Media were then collected and IL-1b concentration was determined by ELISA.
FIG. 9. (A) Beas2b cells were cultured in DMEM 2% media with glucose for 24 h before switching to glucose-free media. Cells were then exposed to Compound 23 or metformin in a dose dependent manner for 18 h before being collected for immunoblotting. (B) Beas2b cells were cultured in DMEM 2% media with glucose for 24 h before switching to glucose-free media and treated with Compound 12 or Compound 23 in a dose dependent manner. After 6 h, cells were then collected for immunoblotting. (C) Beas2b cells were cultured in DMEM 2% media with glucose for 24 h before switching to glucose-free media and treated with Compound 12 or Compound 23 in a dose dependent manner. After 18 h, cells were then collected for immunoblotting. (D) Beas2b cells were transfected with AMPK phospho mimic T172D or phospho dead T172A mutant for 24 h. Cells were then switched to glucose-free media and exposed to Compound 23 in a dose or time dependent manner before being collected for immunoblotting. (E) Beas2b cells were transfected with control siRNA or Fbxo48 siRNA for 48 h before switching to glucose-free media. Cells were then exposed to Compound 23 in a dose dependent manner before being collected for immunoblotting. (F) Compound 23 chemical structure.
Compound 1 was studied in in vitro assays using Beas2B cells. […]
Compound 23 was tested in in vitro studies using Beas2B cells and compared with metformin.
For orientation: Immunoblotting shows a protein as a band on a membrane.

Test [4] relates to pAMPK. Kind of test: pAMPK immunoblotting in Beas2B cells (Table 1). It is filed as cell-based. Conditions: Homo sapiens, BEAS-2B, DMEM media without glucose, compounds 18 h. Here is the method: Additional compounds in Table 1 were or can be prepared according to the above-described Examples. Human bronchial epithelial cells (Beas2B) were seeded in 6-well plates for 18 h. Cells were then exposed to DMEM media without glucose and compounds at various concentrations for an additional 18 h before being collected for immunoblotting.

Each structure is given as a SMILES string. In brackets after ≈: the same amount, converted by molar mass.

As to `NC(=O)c1ncn([C@@H]2O[C@H](CO)[C@@H](O)[C@H]2O)c1N` [AICAR, reference compound], the “glucose tolerance (intraperitoneal glucose tolerance test)” value in test [1] (1 g/kg body weight glucose, data not shown) is recorded as “no difference in glucose tolerance”. Also, the “body weight at the time of study” value in test [1] (two oral doses (AICAR 200 mg/kg, BC1618 20 mg/kg)) is listed as “no differences in body weight”. Moreover, the “reduction of fasting plasma glucose compared to vehicle” value in test [1] (two oral doses (AICAR 200 mg/kg, BC1618 20 mg/kg), 2 h after second dose, P=0.08) was determined as 10%. In test [2], the “body weight loss (daily body weight)” value is “effect of AICAR and BC1618 on body weight loss”; the “change in body weight from day 0 to day 14” value is recorded as “an effect due to AICAR or BC1618”; the “change in fat mass from D0 to D14” value is “apparent additive effect”. In addition, the “concentration at which phospho-AMPK levels increased” value in test [3] (Beas2b, glucose-free media, 18 h, dose dependent) is recorded as ~0.05 mM.

For orientation: IC50 means the midpoint of a concentration-inhibition curve. Low values mean inhibition by little substance, high ones a need for much substance. Turning to `OC(COc1ccc(OCC(O)CN(Cc2ccccc2)Cc2ccccc2)cc1)CN(Cc1ccccc1)Cc1ccccc1` (centres unmarked) [Compound 1], the “concentration leading to a drastic increase in phospho-AMPK levels” value in test [3] (Beas2B cells, 18 h, various doses) came to 2 µM. Besides, the “phospho-AMPK levels compared to vehicle control” value in test [3] (Beas2b, glucose-free media, 2 μM, time course, within 2 h) is “drastically increased”. For the same molecule, the “phospho-AMPK and downstream p-ACC levels versus AICAR” value in test [3] (Compound 1 alone at 4 μM, AICAR at 0.25 mM) is given as “well exceeding AICAR treatment at 0.25 mM”. Moreover, the “effect of co-treatment with AICAR on phospho-AMPK” value in test [3] (Compound 1 at 4 μM with AICAR at various doses, 18 h) is recorded as “completely saturated AICAR effects”. The IC50 in test [4] is 1 to 10 µg/mL (≈ 1.62 to 16.2 µM). On to `COCCN(Cc1ccc(OCC(O)CN(C)Cc2ccccc2)cc1)C(C)C` (centres unmarked) [Compound 2], for which the IC50 in test [4] is > 10 µg/mL. Same read-out and setting: under `CN(Cc1ccccc1)CC(O)COc1ccc(CNC2CC2)cc1` (centres unmarked) [Compound 3] stands > 10 µg/mL. Same read-out and setting: the figure for `Cc1ccccc1CNCc1ccc(OCC(O)CN(C)Cc2ccccc2)cc1` (centres unmarked) [Compound 4] is > 10 µg/mL; for `Cc1ccc(OCC(O)CN(Cc2ccccc2)Cc2ccccc2)cc1` (centres unmarked) [Compound 5] it is 1 to 10 µg/mL (≈ 2.77 to 27.7 µM); for `COc1ccc(OCC(O)CN(Cc2ccccc2)Cc2ccccc2)cc1` (centres unmarked) [Compound 6] it is 1 to 10 µg/mL (≈ 2.65 to 26.5 µM). Still for that read-out and setting: the figure for `OC(COc1ccc2ccccc2c1)CN(Cc1ccccc1)Cc1ccccc1` (centres unmarked) [Compound 7] is 1 to 10 µg/mL (≈ 2.52 to 25.2 µM); for `OC(CNCc1ccccc1)COc1ccc(OCC(O)CNCc2ccccc2)cc1` (centres unmarked) [Compound 8] it is > 10 µg/mL; for `Cc1ccccc1OCC(O)CN(Cc1ccccc1)Cc1ccccc1` (centres unmarked) [Compound 9] it is 1 to 10 µg/mL (≈ 2.77 to 27.7 µM). Turning to `CC1CN(Cc2ccc(OCC(O)CN(C)Cc3ccccc3)cc2)C1` (centres unmarked) [Compound 10], in test [4], the IC50 is > 10 µg/mL.

Molecule `OC(CNC(c1ccccc1)c1ccccc1)COc1ccc(F)cc1` (centres unmarked) [Compound 11] showed an IC50 in test [4] of 1 to 10 µg/mL (≈ 2.85 to 28.5 µM). Same read-out and setting: the figure for `OC(CNC(c1ccccc1)c1ccccc1)COc1ccccc1` (centres unmarked) [Compound 13] is 1 to 10 µg/mL (≈ 3 to 30 µM).

In test [4], `OC(CNCC(c1ccccc1)c1ccccc1)COc1ccccc1` (centres unmarked) [Compound 14] came in with an IC50 of 1 to 10 µg/mL (≈ 2.88 to 28.8 µM). Still for that read-out and setting: the figure for `OC(CNC1c2ccccc2Oc2ccccc21)COc1ccccc1` (centres unmarked) [Compound 15] is > 10 µg/mL; for `OC(COc1ccccc1)CN(Cc1ccccc1)Cc1ccccc1` (centres unmarked) [Compound 16] it is 1 to 10 µg/mL (≈ 2.88 to 28.8 µM); for `COc1ccc(OCC(O)CNCC(c2ccccc2)c2ccccc2)cc1` (centres unmarked) [Compound 17] it is 1 to 10 µg/mL (≈ 2.65 to 26.5 µM). The same measure, in the same setting: under `OC(CNC(c1ccccc1)c1ccccc1)COc1ccc(C2CCCCC2)cc1` (centres unmarked) [Compound 18] stands 1 to 10 µg/mL (≈ 2.41 to 24.1 µM); under `OC(COc1ccc(C2CCCCC2)cc1)CN(Cc1ccccc1)Cc1ccccc1` (centres unmarked) [Compound 19], 1 to 10 µg/mL (≈ 2.33 to 23.3 µM).

As for `OC(CNCC(c1ccccc1)c1ccccc1)COc1ccc(C2CCCCC2)cc1` (centres unmarked) [Compound 20], the IC50 in test [4] was > 10 µg/mL. Same read-out and setting: the figure for `O=C(c1ccccc1)c1ccc(OCC(O)CN(Cc2ccccc2)Cc2ccccc2)cc1` (centres unmarked) [Compound 21] is > 10 µg/mL; for `OC(COc1ccc(-c2ccccn2)cc1)CN(Cc1ccccc1)Cc1ccccc1` (centres unmarked) [Compound 22] it is > 10 µg/mL. In test [4], `OC(CN(Cc1ccccc1)Cc1ccccc1)c1ccc2ccccc2c1` (centres unmarked) [Compound 24] returned an IC50 of 1 to 10 µg/mL (≈ 2.72 to 27.2 µM).

Turning to `OC(CCc1ccccc1)CN(Cc1ccccc1)Cc1ccccc1` (centres unmarked) [Compound 25], the IC50 in test [4] is > 10 µg/mL. On the same count and under the same terms, the figure for `OC(COc1ccc(C(F)(F)F)cc1)CN1CCc2ccccc2C1` (centres unmarked) [Compound 26] is > 10 µg/mL; for `OC(CNc1ccc(C(F)(F)F)cc1)CNc1ccc(C(F)(F)F)cc1` [Compound 27] it is > 10 µg/mL; for `OC(CNc1ccc(F)cc1)COc1ccc(F)cc1` (centres unmarked) [Compound 28] it is > 10 µg/mL. As to `CN(C)C(=N)N=C(N)N` [metformin, reference compound], the “concentration range increasing pAMPK phosphorylation and downstream substrate ACC phosphorylation” value in test [3] (Beas2b, glucose-free media, 18 h) is on record as “millimolar”.

The values are drawn from patent publication US11673853B2, “Small molecule AMPK activators” (University of Pittsburgh—Of the Commonwealth System of …, priority 2016, dated 2023).
